Assay results from patent US9822147B2, “Methods of treating ophthalmic diseases using NPR-B agonists” (priority 2009, dated 2017).
Numbered stars: 1 amine (or outer) side, 2 acyl side, 3 side chain; on linkers, the order of the positions; unused ones are H or OH. Square brackets hold non-standard residues; d marks the D form. Peptide text beside a SMILES is read from it. * marks the point of attachment. Phe(3,4-Cl2) = N[C@@H](Cc1ccc(Cl)c(Cl)c1)C(=O)O; X4 = NCCCN[C@@H]1C[C@@H](C(=O)[*:2])N([*:1])C1; Phe(4-Br) = N[C@@H](Cc1ccc(Br)cc1)C(=O)O; Pro(4R-NH2) = N[C@H]1CN[C@H](C(=O)O)C1; dLys(Me2) = CN(C)CCCC[C@@H](N)C(=O)O; dOrn(Me2) = CN(C)CCC[C@@H](N)C(=O)O; Gly(cPent) = N[C@H](C(=O)O)C1CCCC1; X2 = O=C([C@H]1CCCN([*:1])C1)[*:2]; Hyp = O=C(O)[C@@H]1C[C@@H](O)CN1; NHcycloheptyl = C1CCCC(N*)CC1; NMeL = CN[C@@H](CC(C)C)C(=O)O; Octanoyl = CCCCCCCC(=O)*

Target: T1, NPR-B (Homo sapiens, UniProt P20594)
T1 construct: a functional assay using endogenously NPR-B expressing GTM-3 cells; endogenous in cells; host or cells: GTM-3 (human glaucoma trabecular meshwork cells)
T1 sequence (P20594 23-1047): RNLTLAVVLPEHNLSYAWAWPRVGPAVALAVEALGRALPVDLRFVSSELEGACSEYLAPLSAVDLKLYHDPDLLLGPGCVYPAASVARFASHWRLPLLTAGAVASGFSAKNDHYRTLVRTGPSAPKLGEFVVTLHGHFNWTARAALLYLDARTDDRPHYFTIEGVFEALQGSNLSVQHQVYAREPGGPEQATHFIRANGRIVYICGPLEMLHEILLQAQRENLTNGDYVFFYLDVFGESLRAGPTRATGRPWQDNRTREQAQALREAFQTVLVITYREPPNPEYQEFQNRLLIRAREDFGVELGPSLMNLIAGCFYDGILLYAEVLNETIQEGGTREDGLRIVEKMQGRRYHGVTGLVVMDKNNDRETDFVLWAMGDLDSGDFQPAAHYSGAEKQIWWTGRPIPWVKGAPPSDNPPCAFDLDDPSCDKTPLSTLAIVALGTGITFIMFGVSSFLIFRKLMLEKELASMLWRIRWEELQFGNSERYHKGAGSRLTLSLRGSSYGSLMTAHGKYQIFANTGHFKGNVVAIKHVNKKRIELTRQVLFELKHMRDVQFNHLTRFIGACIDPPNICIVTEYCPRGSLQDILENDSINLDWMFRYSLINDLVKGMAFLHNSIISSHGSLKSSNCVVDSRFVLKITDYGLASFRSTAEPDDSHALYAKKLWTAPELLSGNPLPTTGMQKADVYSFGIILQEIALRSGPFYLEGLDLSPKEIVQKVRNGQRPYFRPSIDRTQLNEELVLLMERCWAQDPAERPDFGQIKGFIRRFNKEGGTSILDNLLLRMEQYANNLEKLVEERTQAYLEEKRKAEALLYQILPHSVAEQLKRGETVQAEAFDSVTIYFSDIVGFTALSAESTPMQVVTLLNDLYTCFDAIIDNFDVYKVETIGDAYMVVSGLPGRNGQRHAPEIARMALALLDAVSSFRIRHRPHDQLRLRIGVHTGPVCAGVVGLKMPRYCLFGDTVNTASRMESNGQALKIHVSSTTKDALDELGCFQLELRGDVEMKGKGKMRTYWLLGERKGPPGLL
Assay: NPR-B induced production of cyclic GMP in human glaucoma trabecular meshwork cells (GTM-3)
Type: cell-based
Conditions: group by EC50 and Emax (CNP = 100%); Table 4; read-out: Activity (group), NPR-B activation assayed with GTM-3 cells

Row | Compound | EC50
1 | CCCCCCCC(=O)N1CCC[C@H](C(=O)N[C@@H](Cc2ccccc2)C(=O)N[C@H](CC(C)C)C(=O)N[C@@H](CC(C)C)C(=O)N2C[C@H](O)C[C@H]2C(=O)N[C@H](C(=O)N[C@@H](CC(=O)O)C(=O)N[C@@H](CCCNC(=N)N)C(=O)N[C@H](C(N)=O)[C@@H](C)CC)C2CCCC2)C1 [JAL-1626, Occ-Sni-Phe-leu-Leu-Hyp-Cpg-Asp-Arg-Ile-NH2] (Octanoyl-[X2]F[dL]L[Hyp][Gly(cPent)]DRI-NH2) | < 1 µM
2 | CCCCCCCC(=O)N1CCC[C@H](C(=O)N[C@@H](Cc2ccccc2)C(=O)N[C@H](CCCCN(C)C)C(=O)N[C@@H](CC(C)C)C(=O)N2C[C@H](O)C[C@H]2C(=O)N(C)[C@@H](CC(C)C)C(=O)N[C@H](C(=O)N[C@@H](CCCNC(=N)N)C(=O)NC2CCCCCC2)C(C)C)C1 [JAL-1779, Occ-Sni-Phe-lys(Me2)-Leu-Hyp-Nml-Val-Arg-Che] (Octanoyl-[X2]F[dLys(Me2)]L[Hyp][NMeL]VR-NHcycloheptyl) | < 1 µM
3 | CCCCCCCC(=O)N[C@H](C)C(=O)N[C@@H](Cc1ccc(Cl)cc1)C(=O)N[C@H](CC(C)C)C(=O)N[C@@H](CC(C)C)C(=O)N1C[C@H](O)C[C@H]1C(=O)N[C@@H](CC(C)C)C(=O)N[C@@H](CC(=O)O)C(=O)N[C@@H](CCCNC(=N)N)C(=O)N[C@H](C(N)=O)[C@@H](C)CC [JAL-1050, Occ-ala-Pcf-leu-Leu-Hyp-Leu-Asp-Arg-Ile-NH2] (HELM PEPTIDE1{[CCCCCCCC(=O)[*:2]].[dA].[O=C([C@H](Cc1ccc(Cl)cc1)N[*:1])[*:2]].[dL].L.[Hyp].L.D.R.I.[am]}$$$$V2.0) | < 1 µM
4 | CCCCCCCC(=O)N1CCC[C@H](C(=O)N[C@@H](Cc2ccc(Cl)c(Cl)c2)C(=O)N[C@H](CC(C)C)C(=O)N[C@@H](CC(C)C)C(=O)N2C[C@H](O)C[C@H]2C(=O)N(C)[C@@H](CC(C)C)C(=O)N[C@@H](CC(=O)O)C(=O)N[C@@H](CCCNC(=N)N)C(=O)N[C@H](C(N)=O)[C@@H](C)CC)C1 [JAL-1496, Occ-Sni-Eaa-leu-Leu-Hyp-Nml-Asp-Arg-Ile-NH2] (Octanoyl-[X2][Phe(3,4-Cl2)][dL]L[Hyp][NMeL]DRI-NH2) | < 1 µM
5 | CC[C@H](C)[C@H](NC(=O)[C@H](CCCNC(=N)N)NC(=O)[C@H](CC(=O)O)NC(=O)[C@H](CC(C)C)N(C)C(=O)[C@@H]1C[C@@H](O)CN1C(=O)[C@H](CC(C)C)NC(=O)[C@@H](CC(C)C)NC(=O)[C@H](Cc1ccccc1)NC(=O)[C@H]1CCCN(C(=O)CCCCc2ccccc2)C1)C(N)=O [JAL-1606, 1320-Sni-Phe-leu-Leu-Hyp-Nml-Asp-Arg-Ile-NH2] (HELM PEPTIDE1{[O=C(CCCCc1ccccc1)[*:2]].[O=C([C@H]1CCCN([*:1])C1)[*:2]].F.[dL].L.[Hyp].[meL].D.R.I.[am]}$$$$V2.0) | < 1 µM
6 | CCCCCCCC(=O)N1CCC[C@H](C(=O)N[C@@H](Cc2ccccc2)C(=O)N[C@H](CC(C)C)C(=O)N[C@@H](CC(C)C)C(=O)N2C[C@H](O)C[C@H]2C(=O)N(C)[C@@H](CC(C)C)C(=O)N[C@@H](CO)C(=O)N[C@@H](CCCNC(=N)N)C(=O)NC2CCCCCC2)C1 [JAL-1752, Occ-Sni-Phe-leu-Leu-Hyp-Nml-Ser-Arg-Che] (Octanoyl-[X2]F[dL]L[Hyp][NMeL]SR-NHcycloheptyl) | < 1 µM
7 | CCCCCCCC(=O)N[C@H](C)C(=O)N[C@@H](Cc1ccccc1)C(=O)N[C@H](CCCN)C(=O)N[C@@H](CC(C)C)C(=O)N1C[C@H](O)C[C@H]1C(=O)N(C)[C@@H](CC(C)C)C(=O)N[C@@H](CC(=O)O)C(=O)N[C@@H](CCCNC(=N)N)C(=O)N[C@H](C(N)=O)[C@@H](C)CC [JAL-1061, Occ-ala-Phe-orn-Leu-Hyp-Nml-Asp-Arg-Ile-NH2] (HELM PEPTIDE1{[CCCCCCCC(=O)[*:2]].[dA].F.[NCCC[C@@H](N[*:1])C(=O)[*:2]].L.[Hyp].[meL].D.R.I.[am]}$$$$V2.0) | < 1 µM
8 | CCCCCCCC(=O)N1CCC[C@H](C(=O)N[C@@H](Cc2ccccc2)C(=O)N[C@H](CCCN(C)C)C(=O)N[C@@H](CC(C)C)C(=O)N2C[C@H](N)C[C@H]2C(=O)N(C)[C@@H](CC(C)C)C(=O)N[C@@H](CC(=O)O)C(=O)N[C@@H](CCCNC(=N)N)C(=O)N[C@H](C(N)=O)[C@@H](C)CC)C1 [JAL-1936, Occ-Sni-Phe-orn(Me2)-Leu-Tap-Nml-Asp-Arg-Ile-NH2] (Octanoyl-[X2]F[dOrn(Me2)]L[Pro(4R-NH2)][NMeL]DRI-NH2) | < 1 µM
9 | CCCCCCCC(=O)N1CCC[C@H](C(=O)N[C@@H](Cc2ccccc2)C(=O)N[C@H](CC(C)C)C(=O)N[C@@H](CC(C)C)C(=O)N2C[C@H](NCCCN)C[C@H]2C(=O)N(C)[C@@H](CC(C)C)C(=O)N[C@@H](CC(=O)O)C(=O)N[C@@H](CCCNC(=N)N)C(=O)N[C@H](C(N)=O)[C@@H](C)CC)C1 [JAL-1372, Occ-Sni-Phe-leu-Leu-Tap(Ap)-Nml-Asp-Arg-Ile-NH2] (Octanoyl-[X2]F[dL]L[X4][NMeL]DRI-NH2) | < 1 µM
10 | CCCCCCCC(=O)N[C@H](C)C(=O)N[C@@H](Cc1ccccc1)C(=O)N[C@H](CC(C)C)C(=O)N[C@@H](CC(C)C)C(=O)N1C[C@H](O)C[C@H]1C(=O)N(C)[C@@H](CC(C)C)C(=O)N[C@@H](CC(=O)O)C(=O)N[C@@H](CCCNC(=N)N)C(=O)N[C@H](C(N)=O)C(C)(C)C [JAL-1352, Occ-ala-Phe-leu-Leu-Hyp-Nml-Asp-Arg-Tbg-NH2] (HELM PEPTIDE1{[CCCCCCCC(=O)[*:2]].[dA].F.[dL].L.[Hyp].[meL].D.R.[CC(C)(C)[C@H](N[*:1])C(=O)[*:2]].[am]}$$$$V2.0) | < 1 µM

The remaining lines, values ahead:

Row | EC50 | Compound
11 | < 1 µM | CCCCCCCC(=O)N1CCC[C@H](C(=O)N[C@@H](Cc2ccccc2)C(=O)N[C@H](CC(C)C)C(=O)N[C@@H](CC(C)C)C(=O)N2C[C@H](O)C[C@H]2C(=O)N(C)[C@@H](CC(C)C)C(=O)N[C@@H](CC(=O)O)C(=O)N[C@@H](CCCNC(=N)N)C(=O)NC2CCCCCC2)C1 [JAL-1680, Occ-Sni-Phe-leu-Leu-Hyp-Nml-Asp-Arg-Che] (Octanoyl-[X2]F[dL]L[Hyp][NMeL]DR-NHcycloheptyl)
12 | < 1 µM | CCCCCCCC(=O)N[C@H](C)C(=O)N[C@@H](Cc1ccccc1)C(=O)N[C@H](CC(C)C)C(=O)N[C@@H](CC(C)C)C(=O)N1CCC[C@H]1C(=O)N(C)[C@@H](CC(C)C)C(=O)N[C@@H](CC(=O)O)C(=O)N[C@@H](CCCNC(=N)N)C(=O)N[C@H](C(N)=O)[C@@H](C)CC [JAL-1039, Occ-ala-Phe-leu-Leu-Pro-Nml-Asp-Arg-Ile-NH2] (HELM PEPTIDE1{[CCCCCCCC(=O)[*:2]].[dA].F.[dL].L.P.[meL].D.R.I.[am]}$$$$V2.0)
13 | < 1 µM | CCCCCCCC(=O)N[C@H](C)C(=O)N[C@@H](Cc1ccccc1)C(=O)N[C@H](CCCN(C)C)C(=O)N[C@@H](CC(C)C)C(=O)N1C[C@H](O)C[C@H]1C(=O)N(C)[C@@H](CC(C)C)C(=O)N[C@@H](CC(=O)O)C(=O)N[C@@H](CCCNC(=N)N)C(=O)N[C@H](C(N)=O)[C@@H](C)CC [JAL-1288, Occ-ala-Phe-orn(Me2)-Leu-Hyp-Nml-Asp-Arg-Ile-NH2] (HELM PEPTIDE1{[CCCCCCCC(=O)[*:2]].[dA].F.[CN(C)CCC[C@@H](N[*:1])C(=O)[*:2]].L.[Hyp].[meL].D.R.I.[am]}$$$$V2.0)
14 | < 1 µM | CCCCCCCC(=O)N1CCC[C@@H]1C(=O)N[C@@H](Cc1ccccc1)C(=O)N[C@H](CC(C)C)C(=O)N[C@@H](CC(C)C)C(=O)N1C[C@H](O)C[C@H]1C(=O)N[C@@H](CC(C)C)C(=O)N[C@@H](CC(=O)O)C(=O)N[C@@H](CCCNC(=N)N)C(=O)N[C@H](C(N)=O)[C@@H](C)CC [JAL-1053, Occ-pro-Phe-leu-Leu-Hyp-Leu-Asp-Arg-Ile-NH2] (HELM PEPTIDE1{[CCCCCCCC(=O)[*:2]].[dP].F.[dL].L.[Hyp].L.D.R.I.[am]}$$$$V2.0)
15 | < 1 µM | CCCCCCCC(=O)N1CCC[C@H](C(=O)N[C@@H](Cc2ccc(Br)cc2)C(=O)N[C@H](CC(C)C)C(=O)N[C@@H](CC(C)C)C(=O)N2C[C@H](O)C[C@H]2C(=O)N(C)[C@@H](CC(C)C)C(=O)N[C@@H](CC(=O)O)C(=O)N[C@@H](CCCNC(=N)N)C(=O)N[C@H](C(N)=O)[C@@H](C)CC)C1 [JAL-1619, Occ-Sni-Pbf-leu-Leu-Hyp-Nml-Asp-Arg-Ile-NH2] (Octanoyl-[X2][Phe(4-Br)][dL]L[Hyp][NMeL]DRI-NH2)
16 | < 1 µM | CCCCCCCC(=O)N[C@H](C)C(=O)N(C)[C@@H](Cc1ccccc1)C(=O)N[C@H](CC(C)C)C(=O)N[C@@H](CC(C)C)C(=O)N1C[C@H](O)C[C@H]1C(=O)N[C@@H](CC(C)C)C(=O)N[C@@H](CC(=O)O)C(=O)N[C@@H](CCCNC(=N)N)C(=O)N[C@H](C(N)=O)[C@@H](C)CC [JAL-1052, Occ-ala-Nmf-leu-Leu-Hyp-Leu-Asp-Arg-Ile-NH2] (HELM PEPTIDE1{[CCCCCCCC(=O)[*:2]].[dA].[meF].[dL].L.[Hyp].L.D.R.I.[am]}$$$$V2.0)
